Test systems include Listeria grayi DSM 20601; Escherichia coli D31; Staphylococcus aureus; Pseudomonas aeruginosa; Pseudomonas aeruginosa 1; Enterococcus faecalis; Acinetobacter baumannii; Escherichia coli; Bacillus subtilis; Escherichia coli K88; Escherichia coli K99; Escherichia coli UB1005.
Common to all, as to assay: ≥ marks a high value that may be exact or a test limit, other limits are often not marked, values filed in µg/mL are converted to µM
The test system of experiment [1] is Listeria fleischmannii DSM 24998.
Experiment [2] has as its system Listeria monocytogenes DSM 20600.
The test system of experiment [3] is Micrococcus luteus DSM 20030.
For experiment [4], the system named is Staphylococcus aureus ATCC 25923.
Experiment [5] has as its system Bacillus thuringiensis ATCC 10792.
The test system of experiment [6] is Staphylococcus aureus CCT 2580.
In experiment [7] the test system is Staphylococcus epidermidis ATCC 12228.
The subject of experiment [8] is Salmonella enterica subsp. enterica serovar Choleraesuis ATCC 10708.
Experiment [9] concerns Salmonella enterica subsp. enterica serovar Typhimurium ATCC 14028.
In experiment [10] the test system is Streptococcus pneumoniae ATCC 11733.
In experiment [11] the test system is Pseudomonas aeruginosa ATCC 15422.
Experiment [12] relates to Micrococcus luteus ATCC 4698.
For experiment [13], the system named is Escherichia coli CCT 1457.
Experiment [14] has as its system Bacillus cereus ATCC 11778.
For experiment [15], the system named is Escherichia coli ATCC 11775.
In experiment [16] the test system is Streptococcus mutans AU159.
The subject of experiment [17] is Enterococcus faecium CCT 5079.
Experiment [18] deals with Enterococcus hirae ATCC 10541.
Experiment [19] deals with Staphylococcus aureus CCT 6538.
In experiment [20] the test system is Escherichia coli ATCC 25922.
The test system of experiment [21] is Pseudomonas aeruginosa ATCC 13388.
For experiment [22], the system named is Streptococcus pyogenes ATCC 19615.
The test system of experiment [23] is Klebsiella pneumoniae ATCC 13883.
In experiment [24] the test system is Pseudomonas aeruginosa ATCC 27853.
The test system of experiment [25] is Enterococcus faecalis ATCC 29212.
Experiment [26] relates to Lacticaseibacillus rhamnosus 1.0936.
Experiment [27] has as its system Lacticaseibacillus rhamnosus 1.0385.
The subject of experiment [28] is Lacticaseibacillus rhamnosus 1.0911.
The subject of experiment [29] is Lactiplantibacillus plantarum 8014.
Experiment [30] deals with Staphylococcus aureus ATCC 43300.
Experiment [31] concerns Lacticaseibacillus rhamnosus 7469.
Experiment [32] concerns Salmonella enterica subsp. enterica serovar Typhimurium C77-31.
Experiment [33] has as its system Salmonella enterica subsp. enterica serovar Pullorum C79-13.

The structures appear in SMILES notation. Converted amounts (≈) assume the structure as drawn. “And” between values parts separate entries of the source, which are not always exact repeats. Identical values can stand only once.

By MIC is commonly meant the smallest concentration in the dilution series that meets the test's criterion for growth inhibition. Higher therefore signals a need for much substance. On to `CC[C@H](C)[C@H](NC(=O)[C@H](C)NC(=O)[C@H](CC(N)=O)NC(=O)[C@H](CCCCN)NC(=O)[C@@H](NC(=O)CNC(=O)[C@H](CCC(=O)O)NC(=O)[C@H](Cc1c[nH]c2ccccc12)NC(=O)[C@H](CC(C)C)NC(=O)[C@H](CCCCN)NC(=O)CNC(=O)[C@H](Cc1c[nH]c2ccccc12)NC(=O)[C@H](Cc1ccccc1)NC(=O)CN)C(C)C)C(=O)N[C@@H](CCCCN)C(=O)N[C@@H](CCCCN)C(=O)N[C@@H](CCCCN)C(N)=O` [GFWGKLWEGVKNAIKKK], for which the MIC with Listeria grayi DSM 20601 was 1 µM (≈ 1.99 µg/mL); in [1] it was 1 µM (≈ 1.99 µg/mL); in experiment [2], 2 µM (≈ 3.98 µg/mL); in [3], 0.25 µM (≈ 0.497 µg/mL); against Escherichia coli D31, 4 µM (≈ 7.95 µg/mL).
In the case of `CC[C@H](C)[C@H](NC(=O)[C@H](C)NC(=O)[C@H](CCCCN)NC(=O)[C@H](CCCCN)NC(=O)[C@@H](NC(=O)[C@@H]1CCCN1C(=O)[C@H](CCCCN)NC(=O)[C@H](Cc1c[nH]c2ccccc12)NC(=O)[C@H](CC(C)C)NC(=O)[C@H](CCCCN)NC(=O)CNC(=O)[C@H](Cc1c[nH]c2ccccc12)NC(=O)[C@H](Cc1ccccc1)NC(=O)CN)C(C)C)C(N)=O` [GFWGKLWKPVKKAI], the MIC against Listeria grayi DSM 20601 was found to be 8 µM (≈ 13.3 µg/mL); in [1], 15 µM (≈ 24.9 µg/mL); in [2], 30 µM (≈ 49.7 µg/mL); in experiment [3], 2 µM (≈ 3.31 µg/mL).
Turning to `CC[C@H](C)[C@H](N)C(=O)N[C@@H](CC(N)=O)C(=O)N[C@@H](Cc1c[nH]c2ccccc12)C(=O)N[C@@H](CC(C)C)C(=O)N[C@@H](C)C(=O)N[C@H](C(=O)N[C@@H](C)C(=O)N[C@@H](C)C(=O)N[C@@H](C)C(=O)N[C@H](C(=O)N[C@@H](C)C(=O)NCC(=O)N[C@@H](CCSC)C(=O)N[C@@H](CC(C)C)C(N)=O)C(C)C)[C@@H](C)CC` [INWLAIAAAVAGML], the MIC is over 354 µM in [4]; at least 354 µM in experiment [5]; at least 354 µM in experiment [6]; over 354 µM in experiment [7]; at least 354 µM in [8]; over 354 µM in experiment [9]. In addition, the MIC in experiment [10], in experiment [11], in experiment [12], in [13], in [14] and in experiment [15] was at least 354 µM each time. Besides, the MIC is at least 354 µM in [16]; at least 354 µM in experiment [17]; at least 354 µM in experiment [18]; at least 354 µM in experiment [19]; over 354 µM in experiment [20]; at least 354 µM in experiment [21].
Consider `CC(C)C[C@H](NC(=O)[C@H](CC(C)C)NC(=O)[C@H](CCCCN)NC(=O)[C@H](CCCCN)NC(=O)[C@H](CC(C)C)NC(=O)[C@H](CCCCN)NC(=O)[C@H](CCCCN)NC(=O)[C@H](CC(C)C)NC(=O)[C@H](CC(C)C)NC(=O)[C@H](CCCCN)NC(=O)[C@H](CCCN=C(N)N)NC(=O)[C@H](Cc1c[nH]c2ccccc12)NC(=O)[C@H](CCCCN)NC(=O)[C@@H](N)CCCCN)C(N)=O` [KKWRKLLKKLKKLL], for which the MIC against Staphylococcus aureus stood at 1.1 µM (≈ 2 µg/mL); in the experiment on Pseudomonas aeruginosa, 0.548 µM (≈ 0.999 µg/mL); with Pseudomonas aeruginosa 1, 1.55 µM (≈ 2.83 µg/mL); against Enterococcus faecalis, 0.658 µM (≈ 1.2 µg/mL); against Acinetobacter baumannii, 0.548 µM (≈ 0.999 µg/mL).
Take `CC(C)C[C@H](NC(=O)[C@H](Cc1c[nH]c2ccccc12)NC(=O)[C@H](CCC(N)=O)NC(=O)[C@@H](NC(=O)[C@H](CCC(N)=O)NC(=O)[C@@H]1CCCN1C(=O)[C@H](CCC(=O)O)NC(=O)[C@H](CCCN=C(N)N)NC(=O)[C@@H](N)CCC(N)=O)C(C)C)C(=O)N[C@@H](CCC(=O)O)C(=O)N[C@@H](CCC(N)=O)C(=O)N[C@@H](CCC(N)=O)C(=O)N[C@H](C(=O)N[C@@H](C)C(=O)N[C@@H](CCCCN)C(=O)N[C@@H](CCCN=C(N)N)C(=O)N[C@@H](CCCN=C(N)N)C(=O)N[C@H](C(=O)N[C@@H](CCCCN)C(=O)N[C@@H](CCCN=C(N)N)C(=O)O)[C@@H](C)O)C(C)C` [QREPQVQWLEQQVAKRRTKR]: the MIC in experiment [4] was over 100 µM; in [22], at least 100 µM; in experiment [9], over 100 µM; in the experiment on Escherichia coli, over 100 µM; in [23], at least 100 µM; against Bacillus subtilis, at least 100 µM. For the same molecule, the minimum inhibitory concentration (MIC) in [24] and in experiment [25] was over 100 µM each time.
In the case of `NC(=O)[C@H](CCCN=C(N)N)NC(=O)[C@H](CCCN=C(N)N)NC(=O)[C@H](Cc1c[nH]c2ccccc12)NC(=O)[C@H](Cc1c[nH]c2ccccc12)NC(=O)[C@H](Cc1c[nH]c2ccccc12)NC(=O)[C@@H](N)CCCN=C(N)N` [RWWWRR], the MIC in [26] is at least 64 µM; in [27] it was at least 64 µM; against Escherichia coli K88 it was at least 32 µM; in experiment [28], at least 64 µM; in experiment [9] it was over 64 µM; in experiment [29] it was at least 64 µM. In addition, the MIC in [30] is 8 µM (≈ 8.35 µg/mL); against Escherichia coli K99, at least 32 µM; in [31] it was at least 64 µM; in [20] it was 23.9 µM and 32 µM; in experiment [32], at least 64 µM; against Escherichia coli UB1005, at least 32 µM. The values for the MIC in experiment [33] and in [24] were at least 64 µM and over 64 µM, respectively.

Values taken from DBAASP.
